molecular target: T1, Muscarinic acetylcholine receptor M1 (Rattus norvegicus, UniProt P08482); experiment: Ability to displace [3H]- pirenzepine from M1 receptor in rat hippocampal membranes; assay type: cell membranes, Hippocampus
T1 sequence (P08482 whole entry): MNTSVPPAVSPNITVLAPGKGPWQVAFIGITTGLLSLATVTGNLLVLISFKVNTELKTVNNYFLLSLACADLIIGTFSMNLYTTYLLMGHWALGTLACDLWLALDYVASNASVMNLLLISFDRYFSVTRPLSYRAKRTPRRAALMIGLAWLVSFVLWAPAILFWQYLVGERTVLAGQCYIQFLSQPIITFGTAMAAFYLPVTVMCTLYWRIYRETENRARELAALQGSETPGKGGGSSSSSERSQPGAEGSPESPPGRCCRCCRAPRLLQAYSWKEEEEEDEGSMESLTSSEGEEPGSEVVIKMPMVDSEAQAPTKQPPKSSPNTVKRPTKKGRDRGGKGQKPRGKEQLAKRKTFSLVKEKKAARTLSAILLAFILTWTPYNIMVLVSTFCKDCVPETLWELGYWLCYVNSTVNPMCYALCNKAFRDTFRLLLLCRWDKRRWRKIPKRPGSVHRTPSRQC

Compound	Ki [µM]
CC1OC2(CCN(C)CC2)C/C1=N\NC(=O)Cc1ccccc1 (centres undefined)	30
CCC(=O)N/N=C1\CC2(CCN(C)CC2)OC1C (centres undefined)	76
CC1OC2(CCN(C)CC2)C/C1=N\NC(=O)C(C)(C)C (centres undefined)	15.2
CC(C)C(=O)N/N=C1\CC2(CCN(C)CC2)OC1C (centres undefined)	28
CC(=O)N(C)/N=C1\CC2(CCN(C)CC2)OC1C (centres undefined)	60
CC(=O)N/N=C1\CC2(CCNCC2)OC1C (centres undefined)	180
CC(=O)N/N=C1\CC2(CCN(C)CC2)OC1C (centres undefined)	100
CCCC(=O)N(C)/N=C1\CC2(CCN(C)CC2)OC1C (centres undefined)	16
CC1OC2(CCN(C)CC2)C/C1=N\NC(=O)c1ccccc1 (centres undefined)	78
CC1OC2(CCN(C)CC2)C/C1=N\NC(=O)Cc1ccc2ccccc2c1 (centres undefined)	10
CCCCCCCCCC(=O)N/N=C1\CC2(CCN(C)CC2)OC1C (centres undefined)	14.4
CCCC(=O)N/N=C1\CC2(CCN(C)CC2)OC1C (centres undefined)	65
COC(=O)N/N=C1\CC2(CCN(C)CC2)OC1C (centres undefined)	25
CC(C)CC(=O)N/N=C1\CC2(CCN(C)CC2)OC1C (centres undefined)	90
CCCCCCCC(=O)N(C)/N=C1\CC2(CCN(C)CC2)OC1C (centres undefined)	8.8
CC1OC2(CCN(C)CC2)C/C1=N\NC(=O)CCCc1ccccc1 (centres undefined)	34

Second part, the molecule after the results:

Ki [µM]	Compound
41	CCCCC(=O)N/N=C1\CC2(CCN(C)CC2)OC1C (centres undefined)
30	CC1OC2(CCN(C)CC2)C/C1=N\NC(=O)CC1CCCCC1 (centres undefined)
8	CC1OC2(CCN(C)CC2)C/C1=N\NC(=O)CCCCC1CCCCC1 (centres undefined)
13.6	CC1OC2(CCN(C)CC2)C/C1=N\NC(=O)CCCC1CCCCC1 (centres undefined)
25	CCCCCCC(=O)N/N=C1\CC2(CCN(C)CC2)OC1C (centres undefined)
4.8	CC1OC2(CCN(C)CC2)C/C1=N\NC(=O)c1ccc(C2CCCCC2)cc1 (centres undefined)
38	CC1OC2(CCN(C)CC2)C/C1=N\NC(=O)C1CCCCC1 (centres undefined)
9.5	CCCCCCCC(=O)N/N=C1\CC2(CCN(C)CC2)OC1C (centres undefined)
9	CCCCCCCCC(=O)N/N=C1\CC2(CCN(C)CC2)OC1C (centres undefined)
25	CCCCCC(=O)N/N=C1\CC2(CCN(C)CC2)OC1C (centres undefined)

molecular target: Muscarinic acetylcholine receptor M3 (Cavia porcellus) (UniProt Q8VH26); experiment: Compound was evaluated for intrinsic activity at M3 receptor by measuring isometric contractions of the isolated guinea pig trachea; assay type: tissue-based
Sequence (Q8VH26 1-587): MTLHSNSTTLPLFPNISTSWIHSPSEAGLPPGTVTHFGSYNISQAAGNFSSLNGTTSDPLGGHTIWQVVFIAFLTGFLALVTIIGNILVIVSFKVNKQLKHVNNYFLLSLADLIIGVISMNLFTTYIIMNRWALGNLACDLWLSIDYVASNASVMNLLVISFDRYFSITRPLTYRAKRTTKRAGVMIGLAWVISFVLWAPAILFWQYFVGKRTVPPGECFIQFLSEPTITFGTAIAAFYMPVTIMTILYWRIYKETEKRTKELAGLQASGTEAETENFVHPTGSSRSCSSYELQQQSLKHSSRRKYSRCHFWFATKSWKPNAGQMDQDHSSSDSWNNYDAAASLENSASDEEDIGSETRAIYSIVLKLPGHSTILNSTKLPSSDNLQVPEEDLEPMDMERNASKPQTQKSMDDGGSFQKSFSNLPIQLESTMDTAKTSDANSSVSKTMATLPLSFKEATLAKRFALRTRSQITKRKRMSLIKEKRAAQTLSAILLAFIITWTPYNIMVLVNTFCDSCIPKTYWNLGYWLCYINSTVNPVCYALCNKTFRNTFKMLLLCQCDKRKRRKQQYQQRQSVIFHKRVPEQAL

Intrinsic activity [%]	Compound
78	CC1OC2(CCN(C)CC2)C/C1=N\NC(=O)c1ccc(C2CCCCC2)cc1 (centres undefined)
81	CCCCCCCC(=O)N/N=C1\CC2(CCN(C)CC2)OC1C (centres undefined)

Compound	Intrinsic activity [%]
CC(=O)N/N=C1\CC2(CCN(C)CC2)OC1C (centres undefined)	91

Reference: ChEMBL document CHEMBL1129763, “Acylhydrazones as M1/M3 selective muscarinic agonists” (Bioorg Med Chem Lett, 1996)
